According to ChEMBL document CHEMBL1201862, “PubChem BioAssay data set” (2004):
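Five compound concentrations were applied to cells in 96-well plates for 48 hours; endpoints were derived by simple linear interpolation of the resulting dose-response curve. GI50: concentration for 50% inhibition of growth.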 The source made the active and inactive calls. No stated cut-off is given here; in the data, active = GI50 up to about 1.1 µM and inactive = higher.

Experiments:
Test in all cases: inhibition of tumour cell growth, NCI panel, 48 h
LXFL 529 = tested on: LXFL 529
U-251 = tested on: U-251
786-0 = tested on: 786-0
SF-539 = tested on: SF-539
XF498 = tested on: XF498
Malme-3M = tested on: Malme-3M
NCI-H23 = tested on: NCI-H23
HT-29 = tested on: HT-29
SK-MEL-2 = tested on: SK-MEL-2
HCT-15 = tested on: HCT-15
SF-268 = tested on: SF-268
UACC-62 = tested on: UACC-62
EKVX = tested on: EKVX
SNB-75 = tested on: SNB-75
KM-20L2 = tested on: KM-20L2
SK-OV-3 = tested on: SK-OV-3
MOLT-4 = tested on: MOLT-4
RXF 631 = tested on: RXF 631
UACC-257 = tested on: UACC-257
KM12 = tested on: KM12
SK-MEL-28 = tested on: SK-MEL-28
A498 = tested on: A498
DMS-273 = tested on: DMS-273
SNB-78 = tested on: SNB-78
SW-620 = tested on: SW-620
OVCAR-8 = tested on: OVCAR-8
OVCAR-3 = tested on: OVCAR-3
HOP-18 = tested on: HOP-18
UO-31 = tested on: UO-31
RPMI-8226 = tested on: RPMI-8226
SR = tested on: SR
OVCAR-5 = tested on: OVCAR-5
TK-10 = tested on: TK-10
NCI-H522 = tested on: NCI-H522
M14 = tested on: M14
CCRF-CEM = tested on: CCRF-CEM
SF-295 = tested on: SF-295
HOP-92 = tested on: HOP-92
NCI-H460 = tested on: NCI-H460
ACHN = tested on: ACHN
OVCAR-4 = tested on: OVCAR-4
SNB-19 = tested on: SNB-19
IGROV-1 = tested on: IGROV-1
HOP-62 = tested on: HOP-62
SN12C = tested on: SN12C
COLO 205 = tested on: COLO 205
HL-60 = tested on: HL-60
NCI-H226 = tested on: NCI-H226
RXF 393 = tested on: RXF 393
DLD-1 = tested on: DLD-1
LOX IMVI = tested on: LOX IMVI
HCT-116 = tested on: HCT-116
M19-MEL = tested on: M19-MEL
K562 = tested on: K562
HCC 2998 = tested on: HCC 2998
SK-MEL-5 = tested on: SK-MEL-5
DMS-114 = tested on: DMS-114
A549 = tested on: A549
CAKI-1 = tested on: CAKI-1

SMILES: [O-][n+]1c2cc(CN3CCOCC3)c(CN3CCOCC3)cc2[n+]([O-])c2c(O)cccc21
- GI50 (LXFL 529): 3.1 µM (inactive)
- GI50 (U-251): 3.25 µM (inactive)
- GI50 (786-0): 1.41 µM (inactive)
- GI50 (SF-539): 1.08 µM (active)
- GI50 (XF498): 1.83 µM (inactive)
- GI50 (Malme-3M): 8.73 µM (inactive)
- GI50 (NCI-H23): 2.37 µM (inactive)
- GI50 (HT-29): 3.91 µM (inactive)
- GI50 (SK-MEL-2): 5.56 µM (inactive)
- GI50 (HCT-15): 3.44 µM
- GI50 (SF-268): 1.05 µM (active)
- GI50 (UACC-62): 4.21 µM (inactive)
- GI50 (EKVX): 6.53 µM (inactive)
- GI50 (SNB-75): 3.46 µM (inactive)
- GI50 (KM-20L2): 5.93 µM (inactive)
- GI50 (SK-OV-3): 4.13 µM (inactive)
- GI50 (MOLT-4): 0.627 µM (active)
- GI50 (RXF 631): 16.1 µM (inactive)
- GI50 (UACC-257): 6.24 µM (inactive)
- GI50 (KM12): 4.4 µM (inactive)
- GI50 (SK-MEL-28): 14 µM (inactive)
- GI50 (A498): 11 µM (inactive)
- GI50 (DMS-273): 3.44 µM (inactive)
- GI50 (SNB-78): 3.18 µM (inactive)
- GI50 (SW-620): 2.94 µM (inactive)
- GI50 (OVCAR-8): 2.48 µM (inactive)
- GI50 (OVCAR-3): 5.15 µM (inactive)
- GI50 (HOP-18): 3.55 µM (inactive)
- GI50 (UO-31): 3.72 µM (inactive)
- GI50 (RPMI-8226): 3.32 µM (inactive)
- GI50 (SR): 0.193 µM (active)
- GI50 (OVCAR-5): 4.38 µM (inactive)
- GI50 (TK-10): > 20.4 µM (inactive)
- GI50 (NCI-H522): 1.88 µM (inactive)
- GI50 (M14): 3.64 µM (inactive)
- GI50 (CCRF-CEM): 0.427 µM (active)
- GI50 (SF-295): 0.478 µM (active)
- GI50 (HOP-92): 2 µM (inactive)
- GI50 (NCI-H460): 0.993 µM (active)
- GI50 (ACHN): 4.07 µM (inactive)
- GI50 (OVCAR-4): 4.29 µM (inactive)
- GI50 (SNB-19): 9.44 µM (inactive)
- GI50 (IGROV-1): 5 µM (inactive)
- GI50 (HOP-62): 3.75 µM (inactive)
- GI50 (SN12C): 2.87 µM (inactive)
- GI50 (COLO 205): 5 µM (inactive)
- GI50 (HL-60): 0.807 µM (active)
- GI50 (NCI-H226): 8.65 µM (inactive)
- GI50 (RXF 393): 0.968 µM (active)
- GI50 (DLD-1): 2.12 µM (inactive)
- GI50 (LOX IMVI): 4.02 µM (inactive)
- GI50 (HCT-116): 1.81 µM (inactive)
- GI50 (M19-MEL): 2.9 µM (inactive)
- GI50 (K562): 2.61 µM (inactive)

SMILES: O=C(CCc1nnc2s/c(=C\c3ccccc3[N+](=O)[O-])c(=O)n12)Nc1cc(Cl)c(Cl)cc1Cl
- GI50 (HCC 2998): 38.5 µM (inactive)
- GI50 (LXFL 529): 21.8 µM (inactive)
- GI50 (SK-MEL-5): 34.1 µM (inactive)
- GI50 (U-251): 16.9 µM (inactive)
- GI50 (786-0): 17.1 µM (inactive)
- GI50 (SF-539): 21.1 µM (inactive)
- GI50 (DMS-114): 49.3 µM (inactive)
- GI50 (XF498): 22.6 µM (inactive)
- GI50 (Malme-3M): 48.2 µM (inactive)
- GI50 (NCI-H23): 33.2 µM (inactive)
- GI50 (HT-29): 35.2 µM (inactive)
- GI50 (SK-MEL-2): 92.7 µM (inactive)
- GI50 (HCT-15): 40.4 µM
- GI50 (SF-268): 26.5 µM (inactive)
- GI50 (UACC-62): 40.4 µM (inactive)
- GI50 (EKVX): 37.9 µM (inactive)
- GI50 (SNB-75): 20.5 µM (inactive)
- GI50 (KM-20L2): 54 µM (inactive)
- GI50 (SK-OV-3): 56.6 µM (inactive)
- GI50 (MOLT-4): 21 µM (inactive)
- GI50 (RXF 631): 47.1 µM (inactive)
- GI50 (UACC-257): 63.4 µM (inactive)
- GI50 (KM12): 19.5 µM (inactive)
- GI50 (SK-MEL-28): 92.9 µM (inactive)
- GI50 (A498): 20.4 µM (inactive)
- GI50 (DMS-273): 54.3 µM (inactive)
- GI50 (SNB-78): 35.2 µM (inactive)
- GI50 (SW-620): > 10 µM (inactive)
- GI50 (OVCAR-8): 25.9 µM (inactive)
- GI50 (OVCAR-3): 18.2 µM (inactive)
- GI50 (HOP-18): 18.3 µM (inactive)
- GI50 (UO-31): 31.6 µM (inactive)
- GI50 (OVCAR-5): 34.1 µM (inactive)
- GI50 (TK-10): 37.1 µM (inactive)
- GI50 (NCI-H522): 38.3 µM (inactive)
- GI50 (M14): 32.5 µM (inactive)
- GI50 (CCRF-CEM): 24.4 µM (inactive)
- GI50 (SF-295): 18.7 µM (inactive)
- GI50 (HOP-92): 18.7 µM (inactive)
- GI50 (NCI-H460): 27.4 µM (inactive)
- GI50 (ACHN): 35.8 µM (inactive)
- GI50 (OVCAR-4): 14.7 µM (inactive)
- GI50 (SNB-19): 30.1 µM (inactive)
- GI50 (IGROV-1): 69.5 µM (inactive)
- GI50 (HOP-62): 23.1 µM (inactive)
- GI50 (SN12C): 24.6 µM (inactive)
- GI50 (COLO 205): 83.4 µM (inactive)
- GI50 (NCI-H226): 16.4 µM (inactive)
- GI50 (RXF 393): 22 µM (inactive)
- GI50 (DLD-1): 25.2 µM (inactive)
- GI50 (LOX IMVI): 20.8 µM (inactive)
- GI50 (HCT-116): 17.5 µM (inactive)
- GI50 (A549): 30.5 µM (inactive)
- GI50 (M19-MEL): 43.2 µM (inactive)
- GI50 (K562): 22 µM (inactive)

SMILES: COc1cc(O)c2c(c1)C(=O)C=C(Cl)C2=O
- GI50 (HCC 2998): 83.6 µM (inactive)
- GI50 (LXFL 529): > 100 µM (inactive)
- GI50 (SK-MEL-5): 87.1 µM (inactive)
- GI50 (U-251): > 100 µM (inactive)
- GI50 (786-0): > 100 µM (inactive)
- GI50 (SF-539): 68.4 µM (inactive)
- GI50 (DMS-114): > 100 µM (inactive)
- GI50 (XF498): 42.2 µM (inactive)
- GI50 (Malme-3M): > 100 µM (inactive)
- GI50 (NCI-H23): > 100 µM (inactive)
- GI50 (HT-29): > 100 µM (inactive)
- GI50 (SK-MEL-2): > 100 µM (inactive)
- GI50 (HCT-15): > 100 µM
- GI50 (SF-268): > 100 µM (inactive)
- GI50 (UACC-62): > 100 µM (inactive)
- GI50 (EKVX): > 100 µM (inactive)
- GI50 (SNB-75): > 100 µM (inactive)
- GI50 (KM-20L2): > 100 µM (inactive)
- GI50 (SK-OV-3): > 100 µM (inactive)
- GI50 (MOLT-4): > 100 µM (inactive)
- GI50 (RXF 631): 51.4 µM (inactive)
- GI50 (UACC-257): > 100 µM (inactive)
- GI50 (KM12): > 100 µM (inactive)
- GI50 (SK-MEL-28): > 100 µM (inactive)
- GI50 (CAKI-1): > 100 µM (inactive)
- GI50 (A498): > 100 µM (inactive)
- GI50 (DMS-273): > 100 µM (inactive)
- GI50 (SNB-78): > 100 µM (inactive)
- GI50 (SW-620): > 100 µM (inactive)
- GI50 (OVCAR-8): 64.7 µM (inactive)
- GI50 (OVCAR-3): > 100 µM (inactive)
- GI50 (HOP-18): > 100 µM (inactive)
- GI50 (UO-31): 16 µM (inactive)
- GI50 (RPMI-8226): > 100 µM (inactive)
- GI50 (OVCAR-5): > 100 µM (inactive)
- GI50 (TK-10): > 100 µM (inactive)
- GI50 (NCI-H522): > 100 µM (inactive)
- GI50 (M14): > 100 µM (inactive)
- GI50 (CCRF-CEM): > 100 µM (inactive)
- GI50 (SF-295): > 100 µM (inactive)
- GI50 (HOP-92): > 100 µM (inactive)
- GI50 (ACHN): 94.6 µM (inactive)
- GI50 (OVCAR-4): > 100 µM (inactive)
- GI50 (SNB-19): > 100 µM (inactive)
- GI50 (IGROV-1): > 100 µM (inactive)
- GI50 (COLO 205): > 100 µM (inactive)
- GI50 (HL-60): > 100 µM (inactive)
- GI50 (NCI-H226): 28.2 µM (inactive)
- GI50 (RXF 393): > 100 µM (inactive)
- GI50 (DLD-1): 30.3 µM (inactive)
- GI50 (LOX IMVI): > 100 µM (inactive)
- GI50 (HCT-116): 66.4 µM (inactive)
- GI50 (A549): > 100 µM (inactive)
- GI50 (M19-MEL): > 100 µM (inactive)
- GI50 (K562): > 100 µM (inactive)
